# Experiments:
# [1] = system: Human dermal fibroblasts (HDFs); experiment: Microarray analysis of genome-wide gene expression; assay type: cell-based; conditions: 1 μM effector, 48 hours, vs 0.5% DMSO
# [2] = system: HDAC (nucleus extracts of HeLa cells); experiment: HDAC inhibitory activity evaluation (Color de Lys Substrate Deacetylation); assay type: biochemical; conditions: 0.2 mM substrate, 37° C., 30 minutes, absorption at 405 nm
# Method: Trichostatin A (TSA), SAHA, and CTB were evaluated for their inhibitory activity against Color de Lys™ Substrate Deacetylation using nucleus extracts of HeLa cells. The nucleus extracts of HeLa cells were incubated with 0.2 mM of a substrate at 37° C. After 30 minutes, the reaction was terminated. Then, absorption at 405 nm was measured using Color de Lys™ Developer and thereby evaluated as HDAC inhibitory activity. The strong HDAC inhibitor trichostatin A (TSA) was compared with SAHA and CTB in terms of HDAC inhibitory activity.
Compound,gene groups whose expression is activated (microarray clustering analysis) [1],HDAC inhibitory activity [2]
"O=C(CCCCCCC(=O)Nc1ccccc1)NO [SAHA, suberoylanilide hydroxamic acid]",activates the expression of cancer- and cardiovascular disease-related gene groups,–
"CCOc1ccccc1C(=O)Nc1ccc(Cl)c(C(F)(F)F)c1 [CTB, N-(4-chloro-3-(trifluoromethyl)phenyl)-2-ethoxybenzamide]",activates the expression of a connective tissue disorder-related gene group,lack HDAC inhibitory activity

# From US11097009B2, “CTB-PI polyamide conjugate for activating expression of specific gene” (KYOTO UNIVERSITY, priority 2015, dated 2021)
